Assay [1] has as its target T1, Mu-type opioid receptor (Cavia porcellus, UniProt P97266). Description: Binding affinity was determined against Mu opioid receptor using [3H]-Naltrexone as radioligand.
Assay [2] concerns the target T2, Kappa-type opioid receptor (Cavia porcellus, UniProt P41144). Description: Binding affinity was determined as ability to displace [3H]-U-69, radioligand from Opioid receptor kappa 1.
Assay [3] concerns the target T2, Kappa-type opioid receptor. The assay can be described thus: Compound was tested for the inhibition of [35S]GTP-gamma-S, binding Opioid receptor kappa 1. Format: functional. For orientation: Binding of GTPγS marks nucleotide exchange on a G protein.
The target of assay [4] is Delta-type opioid receptor (Rattus norvegicus, UniProt P33533). Description: Binding affinity was determined as ability to displace [3H]DADLE radioligand from Opioid receptor delta 1.
Chain of Delta-type opioid receptor (P33533 whole entry): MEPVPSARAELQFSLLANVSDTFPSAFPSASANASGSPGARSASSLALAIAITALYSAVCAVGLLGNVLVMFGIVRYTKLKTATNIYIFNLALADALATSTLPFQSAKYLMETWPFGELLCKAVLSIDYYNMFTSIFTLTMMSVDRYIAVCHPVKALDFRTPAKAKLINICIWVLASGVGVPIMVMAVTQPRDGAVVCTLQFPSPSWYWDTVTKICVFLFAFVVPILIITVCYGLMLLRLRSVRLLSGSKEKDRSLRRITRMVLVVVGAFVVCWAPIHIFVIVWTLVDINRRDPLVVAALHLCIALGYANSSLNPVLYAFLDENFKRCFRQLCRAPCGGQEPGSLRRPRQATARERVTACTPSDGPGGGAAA
The target in assay [5] is T1, Mu-type opioid receptor. Description: Compound was tested for the inhibition of [35S]GTP-gamma-S, binding in Guinea pig Caudate stimulated by the opioid receptor agonist Mu-DAMGO. It counts as functional.
Assay [6] deals with Mu-type opioid receptor (Rattus norvegicus, UniProt P33535). Description: Binding affinity was determined as ability to displace [3H]DAMGO radioligand from Mu opioid receptor.
Chain of Mu-type opioid receptor (Rattus norvegicus, UniProt P33535) (P33535 whole entry): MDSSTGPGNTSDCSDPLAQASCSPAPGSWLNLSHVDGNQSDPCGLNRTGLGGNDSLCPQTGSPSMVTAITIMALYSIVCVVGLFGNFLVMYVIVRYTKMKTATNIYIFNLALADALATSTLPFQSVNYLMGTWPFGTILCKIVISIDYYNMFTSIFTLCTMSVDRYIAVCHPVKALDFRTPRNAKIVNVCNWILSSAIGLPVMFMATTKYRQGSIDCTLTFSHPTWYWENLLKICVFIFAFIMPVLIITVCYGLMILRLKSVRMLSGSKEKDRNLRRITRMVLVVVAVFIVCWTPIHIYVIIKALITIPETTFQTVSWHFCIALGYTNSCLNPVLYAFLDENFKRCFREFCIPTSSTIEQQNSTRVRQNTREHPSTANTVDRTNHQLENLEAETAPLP
For assay [7], the target named is T2, Kappa-type opioid receptor. The assay can be described thus: Compound was tested for the inhibition of [35S]GTP-gamma-S, binding to Opioid receptor kappa 1. It counts as functional.

Three compounds from ChEMBL document CHEMBL1130663, “N-substituted octahydro-4a-(3-hydroxyphenyl)-10a-methyl-benzo[g]isoquinolines are opioid receptor pure antagonists” (Bioorg Med Chem Lett, 1998) can be followed below.

T1 sequence (P97266 whole entry): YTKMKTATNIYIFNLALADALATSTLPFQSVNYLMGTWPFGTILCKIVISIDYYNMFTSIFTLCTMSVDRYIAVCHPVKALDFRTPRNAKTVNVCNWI
T2 sequence (P41144 whole entry): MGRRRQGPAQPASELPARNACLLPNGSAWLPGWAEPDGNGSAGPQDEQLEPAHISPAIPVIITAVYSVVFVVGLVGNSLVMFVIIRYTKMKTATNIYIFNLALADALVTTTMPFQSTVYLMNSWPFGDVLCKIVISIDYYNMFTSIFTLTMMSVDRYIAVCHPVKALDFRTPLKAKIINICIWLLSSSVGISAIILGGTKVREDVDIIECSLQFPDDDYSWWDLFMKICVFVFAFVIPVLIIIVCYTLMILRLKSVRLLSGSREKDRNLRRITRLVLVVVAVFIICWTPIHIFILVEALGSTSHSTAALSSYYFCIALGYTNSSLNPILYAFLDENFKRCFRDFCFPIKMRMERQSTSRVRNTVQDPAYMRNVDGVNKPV

As to `C[C@H]1CN(C)CC[C@@]1(C)c1cccc(O)c1`, affinity in assay [1] was put at a Ki of 80 nM.
As for `C[C@]12Cc3ccccc3C[C@@]1(c1cccc(O)c1)CCN(CCc1ccccc1)C2`, the Ki (in general, the dissociation constant of the complex between target and ligand, obtained from inhibition or displacement) worked out at 9.8 nM in assay [2]; 6.61 nM in assay [3]; 1270 nM in assay [4]; 10 nM in assay [5]; 11.2 nM in assay [6].
Regarding `CN1CC[C@]2(c3cccc(O)c3)Cc3ccccc3C[C@]2(C)C1`, the Ki is 166 nM in assay [2]; 52.6 nM in assay [7]; above 5710 nM in assay [4]; 119 nM in assay [5]; 297 nM in assay [6].
